In PubChem BioAssay AID330 (DTP/NCI, 2004):
Several values for one entry are separate records, joined by “and”; a condition that tells them apart may be missing. Equal values may be shown once. Inconclusive results and toxic doses are left out.

System: P388 leukemia ip, CD2F1 mice, survival T/C
Assay: NCI In Vivo Anticancer Drug Screen. Data for tumor model P388 Leukemia (intraperitoneal) in CD2F1 (CDF1) mice
Settings: endpoint: median survival time, higher = longer survival
How it was run: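 Mice carrying the transplanted tumor received test compound or vehicle. Survival was recorded in each group, and the value is the treated-group measurement divided by that of the vehicle-treated control group.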

[1] = dose: 50.0 mg/kg/injection, schedule: Q01DX005 (ip), vehicle: Klucel (hydroxypropylcellulose) (HPC)
[2] = dose: 100.0 mg/kg/injection, schedule: Q01DX005 (ip), vehicle: Klucel (hydroxypropylcellulose) (HPC)
[3] = dose: 60.0 mg/kg/injection, schedule: Q01DX005 (ip), vehicle: saline with Tween-80
[4] = dose: 120.0 mg/kg/injection, schedule: Q01DX005 (ip), vehicle: saline with Tween-80
[5] = dose: 240.0 mg/kg/injection, schedule: Q01DX005 (ip), vehicle: saline with Tween-80
[6] = dose: 50.0 mg/kg/injection, schedule: Q01DX005 (ip), vehicle: saline with Tween-80
[7] = dose: 100.0 mg/kg/injection, schedule: Q01DX005 (ip), vehicle: saline with Tween-80
[8] = dose: 200.0 mg/kg/injection, schedule: Q01DX005 (ip), vehicle: saline with Tween-80
[9] = dose: 50.0 mg/kg/injection, schedule: Q01DX001 (ip), vehicle: Klucel (hydroxypropylcellulose) (HPC)
[10] = dose: 100.0 mg/kg/injection, schedule: Q01DX001 (ip), vehicle: Klucel (hydroxypropylcellulose) (HPC)
[11] = dose: 200.0 mg/kg/injection, schedule: Q01DX001 (ip), vehicle: Klucel (hydroxypropylcellulose) (HPC)
[12] = dose: 50.0 mg/kg/injection, schedule: Q01DX005 (ip), vehicle: saline
[13] = dose: 100.0 mg/kg/injection, schedule: Q01DX005 (ip), vehicle: saline

Cc1ncc(N)c(C(=O)O)n1
T/C [1]: 98 % of control
T/C [2]: 98 % of control

CCn1cc(C(=O)O)c(=O)c2cc3c(cc21)OCO3
T/C (dose: 60.0 mg/kg/injection, schedule: Q01DX005 (ip), vehicle: Klucel (hydroxypropylcellulose) (HPC)): 100 % of control
T/C (dose: 120.0 mg/kg/injection, schedule: Q01DX005 (ip), vehicle: Klucel (hydroxypropylcellulose) (HPC)): 103 % of control
T/C (dose: 240.0 mg/kg/injection, schedule: Q01DX005 (ip), vehicle: Klucel (hydroxypropylcellulose) (HPC)): 100 % of control

O=C(Nn1nnnc1-c1ccccc1)c1ccccc1
T/C (dose: 25.0 mg/kg/injection, schedule: Q01DX005 (ip), vehicle: Klucel (hydroxypropylcellulose) (HPC)): 97 % of control
T/C [1]: 92 % of control
T/C [2]: 101 % of control

COC(C(=O)C(OC(C)=O)C(C)OC(C)=O)C1Cc2cc3cc(OC4CC(OC5CC(OC(C)=O)C(OC(C)=O)C(C)O5)C(OC(C)=O)C(C)O4)c(C)c(OC(C)=O)c3c(OC(C)=O)c2C(=O)C1OC1CC(OC2CC(OC(C)=O)C(OC3CC(C)(OC(C)=O)C(OC(C)=O)C(C)O3)C(C)O2)C(OC(C)=O)C(C)O1 (stereo not drawn)
T/C (dose: 0.13 mg/kg/injection, schedule: Q01DX009 (ip), vehicle: water): 98 % of control
T/C (dose: 0.25 mg/kg/injection, schedule: Q01DX009 (ip), vehicle: water): 99 % of control
T/C (dose: 0.5 mg/kg/injection, schedule: Q01DX009 (ip), vehicle: water): 105 % of control
T/C (dose: 1.0 mg/kg/injection, schedule: Q01DX009 (ip), vehicle: water): 105 % of control
T/C (dose: 2.0 mg/kg/injection, schedule: Q01DX009 (ip), vehicle: water): 107 % of control
T/C (dose: 4.0 mg/kg/injection, schedule: Q01DX009 (ip), vehicle: water): 111 % of control
T/C (dose: 8.0 mg/kg/injection, schedule: Q01DX009 (ip), vehicle: water): 114 % of control
T/C (dose: 11.5 mg/kg/injection, schedule: Q01DX009 (ip), vehicle: water): 106 % of control
T/C (dose: 23.0 mg/kg/injection, schedule: Q01DX009 (ip), vehicle: water): 108 % of control
T/C (dose: 46.0 mg/kg/injection, schedule: Q01DX009 (ip), vehicle: water): 115 % of control

Cc1[nH]c(=O)nc(CCc2ccccc2)c1-c1ccccc1
T/C [3]: 93 % of control
T/C [4]: 87 % of control

OC(c1cc(-c2cccc(Cl)c2)nc2ccccc12)C1CCCCN1 (stereo not drawn)
T/C [1]: 112 % of control
T/C [2]: 107 % of control

O=C(/N=C1\N=Nc2nc(C(C(=O)c3cccc([N+](=O)[O-])c3Cl)c3nc4n(c3O)/C(=N/C(=O)Nc3ccc(Cl)cc3)N=N4)c(O)n21)Nc1ccc(Cl)cc1 (stereo not drawn)
T/C [3]: 99 % of control
T/C [4]: 100 % of control
T/C [5]: 97 % of control

COc1ccc(NC(=S)NC2C(OC(C)=O)OC(COC(C)=O)C(OC(C)=O)C2OC(C)=O)cc1 (stereo not drawn)
T/C [6]: 92 % of control
T/C [7]: 92 % of control
T/C [8]: 89 % of control

Cc1cc(=O)n(-c2ccc([N+](=O)[O-])cc2Cl)c(C)c1C(=O)O
T/C [6]: 103 % of control
T/C [7]: 96 % of control
T/C [8]: 106 % of control

Cc1cccc(C)c1NC(=O)C(Cl)(Cl)Sc1ccc(Cl)cc1Cl
T/C (dose: 50.0 mg/kg/injection, schedule: Q01DX009 (ip), vehicle: saline with Tween-80): 100 % of control
T/C (dose: 100.0 mg/kg/injection, schedule: Q01DX009 (ip), vehicle: saline with Tween-80): 104 % of control
T/C (dose: 200.0 mg/kg/injection, schedule: Q01DX009 (ip), vehicle: saline with Tween-80): 109 % of control

CC(C)(C)C#CP(=O)(C#CC(C)(C)C)C#CC(C)(C)C
T/C [9]: 97 % of control
T/C [10]: 99 % of control
T/C [11]: 95 % of control

C(=N\Nc1nn[nH]n1)/c1ccccc1
T/C (dose: 50.0 mg/kg/injection, schedule: Q01DX009 (ip), vehicle: suspension in saline): 98 % of control
T/C (dose: 100.0 mg/kg/injection, schedule: Q01DX009 (ip), vehicle: suspension in saline): 97 % of control
T/C (dose: 200.0 mg/kg/injection, schedule: Q01DX009 (ip), vehicle: suspension in saline): 104 % of control

CC(=NC(C)(C)C)N1CCCC1
T/C (dose: 12.5 mg/kg/injection, schedule: Q01DX005 (ip), vehicle: saline): 102 % of control
T/C (dose: 25.0 mg/kg/injection, schedule: Q01DX005 (ip), vehicle: saline): 102 % of control
T/C [12]: 101 % of control
T/C [13]: 95 % of control

Nc1nc(-c2ccccc2)c(CC(=O)O)c(-c2nc(N)nc(-c3ccccc3)c2CC(=O)O)n1
T/C [3]: 100 % of control
T/C [4]: 100 % of control
T/C [5]: 86 % of control

Cc1c(Cl)c2ccc(N(C)C)cc2[nH]c1=O
T/C (dose: 50.0 mg/kg/injection, schedule: Q01DX009 (ip), vehicle: acid diluted with saline): 95 % of control
T/C (dose: 100.0 mg/kg/injection, schedule: Q01DX009 (ip), vehicle: acid diluted with saline): 93 % of control
T/C (dose: 200.0 mg/kg/injection, schedule: Q01DX009 (ip), vehicle: acid diluted with saline): 89 % of control

OC1CC2c3ccccc3C1C1CCCCN21 (stereo not drawn)
T/C (dose: 12.5 mg/kg/injection, schedule: Q04DX002 (ip), vehicle: saline): 106 % of control
T/C (dose: 25.0 mg/kg/injection, schedule: Q04DX002 (ip), vehicle: saline): 109 % of control
T/C (dose: 50.0 mg/kg/injection, schedule: Q04DX002 (ip), vehicle: saline): 106 % of control

COc1cc2cc(c1Cl)N(C)C(=O)C[C@H](OC(=O)[C@H](C)N(C)C(=O)CC(C)C)[C@]1(C)O[C@H]1[C@H](C)[C@@H]1C[C@@](O)(NC(=O)O1)[C@H](OC)C=C/C=C(\C)C2
T/C (dose: 0.1 micrograms/kg/injection, schedule: Q01DX009 (ip), vehicle: saline): 107 % of control
T/C (dose: 0.2 micrograms/kg/injection, schedule: Q01DX009 (ip), vehicle: saline): 107 % of control
T/C (dose: 0.4 micrograms/kg/injection, schedule: Q01DX009 (ip), vehicle: saline): 114 % of control
T/C (dose: 6.3 micrograms/kg/injection, schedule: Q01DX009 (ip), vehicle: saline + alcohol): 158 % of control
T/C (dose: 12.5 micrograms/kg/injection, schedule: Q01DX009 (ip), vehicle: saline + alcohol): 169 % of control
T/C (dose: 25.0 micrograms/kg/injection, schedule: Q01DX009 (ip), vehicle: saline + alcohol): 198 % of control

FC(F)(F)c1c[nH]cc1C(F)(F)F
T/C (dose: 50.0 mg/kg/injection, schedule: Q04DX002 (ip), vehicle: Klucel (hydroxypropylcellulose) (HPC)): 109 % of control

CN1C2=C(C(=O)CCC2)C(c2ccccc2)C2=C1CCCC2=O
T/C [6]: 103 % of control
T/C [7]: 100 % of control
T/C [8]: 98 % of control

ClC(Cl)(Cl)C(=NN=C(C(Cl)(Cl)Cl)C(Cl)(Cl)Cl)C(Cl)(Cl)Cl
T/C (dose: 15.0 mg/kg/injection, schedule: Q01DX005 (ip), vehicle: saline with Tween-80): 106 % of control
T/C (dose: 30.0 mg/kg/injection, schedule: Q01DX005 (ip), vehicle: saline with Tween-80): 103 % of control
T/C [3]: 100 % of control and 109 % of control

Cc1ncc(C(O)CCC2OCCO2)n1Cc1ccccc1 (stereo not drawn)
T/C (dose: 50.0 mg/kg/injection, schedule: Q01DX009 (ip), vehicle: Klucel (hydroxypropylcellulose) (HPC)): 96 % of control
T/C (dose: 100.0 mg/kg/injection, schedule: Q01DX009 (ip), vehicle: Klucel (hydroxypropylcellulose) (HPC)): 98 % of control
T/C (dose: 200.0 mg/kg/injection, schedule: Q01DX009 (ip), vehicle: Klucel (hydroxypropylcellulose) (HPC)): 98 % of control

C/C(=N\Nc1ccc([N+](=O)[O-])cc1[N+](=O)[O-])c1ccc(C)cc1
T/C [9]: 105 % of control
T/C [10]: 107 % of control
T/C [11]: 95 % of control
T/C (dose: 400.0 mg/kg/injection, schedule: Q01DX001 (ip), vehicle: Klucel (hydroxypropylcellulose) (HPC)): 91 % of control

CNC(=O)Nc1ccnc2ccc3c(ncn3C(=O)NC)c12
T/C (dose: 100.0 mg/kg/injection, schedule: Q01DX001 (ip), vehicle: saline with Tween-80): 104 % of control
T/C (dose: 200.0 mg/kg/injection, schedule: Q01DX001 (ip), vehicle: saline with Tween-80): 98 % of control

OCCCCC1COC(CC2OCC(CCCCO)O2)O1 (stereo not drawn)
T/C [12]: 101 % of control
T/C [13]: 100 % of control
T/C (dose: 200.0 mg/kg/injection, schedule: Q01DX005 (ip), vehicle: saline): 101 % of control
